According to the NIST ThermoML archive (doi:10.1021/je034180e):
Numbers after ± are expanded uncertainties.

Conditions: Liquid

CCCCC(=O)O [pentanoic acid]
Conditions	vapor or sublimation pressure [kPa]
403.15 K	14.56 ± 0.57
410.71 K	19.59 ± 0.59
417.07 K	24.63 ± 0.62
422.19 K	29.65 ± 0.65
430.08 K	39.72 ± 0.7
436.48 K	49.78 ± 0.75
441.89 K	59.85 ± 0.8
446.45 K	69.92 ± 0.85
448.48 K	74.96 ± 0.88
450.35 K	79.99 ± 0.9
451.92 K	85.03 ± 0.93

CCC(=O)O [propanoic acid]
Conditions	vapor or sublimation pressure [kPa]
361.52 K	14.56 ± 0.57
368.37 K	19.58 ± 0.59
378.95 K	29.65 ± 0.64
386.74 K	39.73 ± 0.7
392.93 K	49.79 ± 0.75
398.09 K	59.86 ± 0.8
402.65 K	69.92 ± 0.85
406.8 K	79.99 ± 0.9
410.33 K	90.07 ± 0.95
411.97 K	95.1 ± 0.98
413.74 K	101.21 ± 1

CC(C)C(=O)O [2-methylpropanoic acid]
Conditions	vapor or sublimation pressure [kPa]
375.21 K	14.55 ± 0.57
382.14 K	19.58 ± 0.59
391.77 K	29.65 ± 0.64
399.43 K	39.72 ± 0.7
405.44 K	49.79 ± 0.75
410.75 K	59.85 ± 0.8
415.51 K	69.92 ± 0.85
419.77 K	79.99 ± 0.9
423.36 K	90.07 ± 0.95
424.86 K	95.1 ± 0.98
426.16 K	100.59 ± 1

CCCCCCC(=O)O [heptanoic acid]
Conditions	vapor or sublimation pressure [kPa]
413.48 K	4.7 ± 0.52
426.48 K	8.63 ± 0.54
435.07 K	12.56 ± 0.56
441.33 K	16.57 ± 0.58
446.4 K	20.63 ± 0.6
451 K	24.65 ± 0.62
453.8 K	27.67 ± 0.63

CCCCCC(=O)O [hexanoic acid]
Conditions	vapor or sublimation pressure [kPa]
413.4 K	9.52 ± 0.54
422.88 K	14.56 ± 0.57
429.92 K	19.59 ± 0.59
435.62 K	24.63 ± 0.62
440.03 K	29.64 ± 0.64
444.26 K	34.68 ± 0.67
447.88 K	39.72 ± 0.69
451.43 K	44.75 ± 0.72

CCCC(=O)O [butanoic acid]
Conditions	vapor or sublimation pressure [kPa]
383.55 K	14.56 ± 0.57
390.87 K	19.58 ± 0.59
401.32 K	29.65 ± 0.64
409 K	39.72 ± 0.7
415 K	49.79 ± 0.75
420.22 K	59.86 ± 0.8
424.81 K	69.92 ± 0.85
428.96 K	79.99 ± 0.9
432.61 K	90.07 ± 0.95
434.51 K	95.1 ± 0.97
436.05 K	100.04 ± 1

CC(C)CC(=O)O [3-methylbutanoic acid]
Conditions	vapor or sublimation pressure [kPa]
396.05 K	14.56 ± 0.57
402.9 K	19.59 ± 0.59
412.87 K	29.65 ± 0.64
420.7 K	39.72 ± 0.7
427.18 K	49.78 ± 0.75
432.62 K	59.86 ± 0.8
437.44 K	69.92 ± 0.85
441.6 K	79.99 ± 0.9
445.16 K	90.07 ± 0.95
446.6 K	95.1 ± 0.98
447.92 K	100.08 ± 1
